Assay results reported in EP1897937A1, “Method of culturing NPCs” (NeuroProgen GmbH Leipzig, priority 2006, dated 2008).

Assays:
hmNPCs [1] = assay: Long-term proliferation: number of living cells (hemocytometer, trypan blue exclusion); type: cell-based, human
Method: (§1) To determine long-term proliferation, hmNPCs were plated and expanded for 2 passages with or without addition of various agents (see below) to the custom expansion media containing the growth factors EGF and FGF2. Different fetal midbrain tissues were included in this study. At the end of the proliferation period, differentiation of hmNPCs was induced via replacement of expansion media with mitogen-free media containing 1% FCS, 5 µM forskoline (Sigma-Aldrich Chemie GmbH Munich, Germany), and 100 pg/ml IL-1β (Sigma). The differentiation and expansion media were supplemented with different drugs as appropriate. Prior to immunocytochemistry or protein extraction, hmNPCs were allowed to differentiate for 1 week. To determine short-term proliferation via Ki67 immunostaining, the cells were seeded into 24-well plates (70,000 cells/well) and left overnight to rest. P2 receptor agonists (ATP, UTP, ATP + UTP, ADP, ADPβS) were supplied daily for 5 consecutive days. Ki67/nestin double-positive cells were counted in 8 randomly selected fields of nucleotide-treated or untreated samples. For the assessment of MAPK phosphorylation the cells were kept free of mitogens for 2 d prior to addition of the MEK-inhibitor in expansion media. In addition, the MEK-inhibitor was added during the differentiation period 15 min before UTP administration.
UTP, UDP, ATP, ADP, ADPβS and suramin were purchased from Sigma (Sigma-Aldrich Chemie GmbH Munich, Germany). UTP and UDP were applied at different concentrations (1 µM, 10 µM, 100 µM), ATP at 100 µM, ADP at 100 µM, and ADPβS at100 µM. During expansion of the cells, the nucleotides were renewed once a week with every media change, unless otherwise stated. They were applied once at the beginning of the differentiation period. The P2 receptor antagonist suramin (10 µM) was added to expansion media 30 min prior to addition of UTP (100 µM). The stock solution of the MEK1/2 inhibitor U0126 (Promega Corporation, Mannheim, Germany) was prepared in dimethyl sulfoxide (DMSO) at a concentration of 10 mM. The stock solution was then diluted in 0.1 M PBS to obtain a concentration of 1 mM. MEK inhibitor (final concentration 10 µM) was added to mitogen-free expansion media, 15 min before UTP treatment (1 µM) of hmNPCs.
Cell counting of control (untreated) and treated hmNPCs was performed using a hemocytometer. Adherent cells were collected by detachment with accutase™ (PAA Laboratories, Pasching, Austria) for 10 min at 37°C. […] The number of total and trypan blue-positive cells was then determined by counting at least 300 cells per sample in a hemocytometer.

hmNPCs [2] = assay: Protein content of cell extracts (Bradford method); type: cell-based; conditions: Homo sapiens, 336 h, 2 weeks of expansion, read-out: protein yield compared to untreated samples
Method: as §1
(§2) In order to prepare protein extracts, hmNPCs were collected, washed with ice-cold PBS and lysed in buffer [10 mM HEPES-KOH (pH 7.9), 10 mM KCI, 1.5 mM MgCl2, 0.1% NP-40], supplemented with protease inhibitor cocktail (Roche). After a brief centrifugation at 4°C/10 000×g, protein concentrations and protein yield from extracts were determined using the Bradford method (Bio-Rad, Hercules, CA, USA). To preserve the phosphorylation state of proteins, extracts for the MAPK experiment were obtained using the PhosphoSafe™ extraction reagent containing phophatase inhibitors (Novagen). […] The chemiluminescence was quantified using the AIDA, two-dimensional densitometry software (Raytest lsotopenmeb, Straubenhardt, Germany). […]

hmNPCs [3] = assay: Western blot of proliferation marker PCNA and survival marker Bcl-2; type: cell-based, human; conditions: 2 weeks
Method: as §1, §2

O=c1ccn([C@@H]2O[C@H](COP(=O)(O)OP(=O)(O)OP(=O)(O)O)[C@@H](O)[C@H]2O)c(=O)[nH]1 [UTP, uridine 5'-triphosphate]
number of living cells (hmNPCs [1]; 100 µM each, 2 weeks in expansion media, on coapplication ADP 30 min before UTP, 20160 min): 110 ± 6% | activity at 1 µM (hmNPCs [1]; Homo sapiens, 336 h, 1 µM, 2 passages (approximately 2 weeks of expansion), control 100 ± 5%, read-out: number of living cells as compared to controls): 152 ± 6% | performance of proliferating hmNPCs grown without mitogens (hmNPCs [1]; without EGF and FGF2, 1 µM once in 5 days): performed slightly better | activity at 1 µM (hmNPCs [2]; 1 µM): 165% | activity at 10 µM (hmNPCs [2]; 10 µM): 125% | activity at 100 µM (hmNPCs [2]; 100 µM): 113% | activity at 1 µM (hmNPCs [3]; Homo sapiens, 336 h, 1 µM, read-out: expression of the proliferation marker PCNA compared to control cells): 330 ± 23% | expression of the survival marker Bcl-2 (hmNPCs [3]; increasing UTP concentrations): did not significantly change
